Assay results published in patent US5602161A, “Tetrazolylphenyl pivalate derivatives and medicinal composition containing the same as effective component” (Wakamoto Pharmaceutical Co., Ltd., priority 1994, dated 1997).
Structures can show the parent of a compound that is named as a salt.

Key:
[1] = molecular target: T1, human sputum elastase (Homo sapiens, UniProt P08246); experiment: Inhibitory effect on elastase (human sputum), spectrophotometric assay with MeOSuc-Ala-Ala-Pro-Val-pNA; assay type: biochemical; settings: S: human sputum elastase; pH 8.0, 37° C.; read-out: IC50
T1 sequence (P08246 30-247 limits assumed): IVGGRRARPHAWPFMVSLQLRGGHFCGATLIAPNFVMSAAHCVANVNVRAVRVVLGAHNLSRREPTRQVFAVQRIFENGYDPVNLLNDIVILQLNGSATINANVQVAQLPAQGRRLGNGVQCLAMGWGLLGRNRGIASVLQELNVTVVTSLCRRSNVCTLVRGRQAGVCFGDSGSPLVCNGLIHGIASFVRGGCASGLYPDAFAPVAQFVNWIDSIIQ
Procedure: (§1) Namely, it is a spectrophotometric assay using the synthesized substrate, methoxysuccinyl-alanyl-alanyl- prolyl-valyl-p-nitroanilide(MeOSuc-Ala-Ala-Pro-Val-pNA, Cambridge research biochemical Co.) which has high specificity on neutrophil elastase.
(§2) 20 μl of a test compound of various concentrations and 20 μl of enzyme solution (13 unit/ml) were added to 400 μl of 0.1M sodium phosphate buffer (pH 8.0). The mixture was incubated at 37° C. for 5 min, and then 20 μl of the substrate was added to the mixture in a final volume of 460 μl. The reaction was conducted by incubating thus obtained mixture at 37° C. for 20 min. The reaction was stopped by the addition of 300 μl of 20% acetic acid into the reaction mixture, and then p-nitroanilide released was measured by the spectrophotometrically at 405 nm.
(§3) Inhibition percents of the test compounds were calculated by the following equation:
(§4) Inhibition %=[1-(OD 405 nm value of the testing sample-background)/(OD 405 nm value of the control-background)]×100

[2] = Cytotoxicity test (MTT, three days); assay type: cell-based; settings: mouse, l1210 cells, read-out: Survival rate; for viability at 72 h, 1 µM: final concentration 1 μM; for viability at 72 h, 5 µM: final concentration 5 μM; for viability at 72 h, 10 µM: final concentration 10 μM
Procedure: L1210 (lymphocytic leukemia, mouse) cells in a logarithmic growth phase were collected and washed twice with HBSS (Hanks' balanced salt solution). The L1210 cells were resuspended at 5.0×10^4 cells/ml in RPMI 1640 medium containing 10% heat-inactivated fetal bovine serum. The cell suspension was dispensed in 100 μl aliquots into 96 well multi-plate. Each of compounds to be tested was dissolved in dimethylsulfoxide at a concentration of 10 mM. The solutions were stepwise diluted with RPMI 1640 solution containing 10% heat-inactivated fetal bovine serum. Each of the diluted samples was dispensed in an amount of 10 μl well in the 96 well multi-plate containing L1210 cells and incubated for three days at 37° C. in humidified 5% CO2 -air mixture. To each of the wells, 10 μl of MTT (3-(4,5-dimethylthiazol-2-yl)-2,5-diphenyltetrazolium bromide)(5 mg/ml in phosphate buffer free of Ca^2+ and Mg^2+) was added. Cultivation was continued for additional five hours at 37° C. in humidified 5% CO2 -air mixture. To each of the wells, 100 μl of 20% SDS (sodium dodecyl sulfate) in 0.01N HCl was added to solubilize the MTT formazan.
Absorbance was measured at 630 nm as a reference wavelength and 570 nm as a measuring wavelength using Corona Electric MTP22 Microplate Photometer. The measurement was conducted three times for each of the samples to obtain an average value and a standard deviation. Survival rate was calculated by the following equation:
Survival rate (5)=[(absorbance of test sample)/(absobance of […]

[3] = molecular target: T2, human neutrophil elastase (Homo sapiens, UniProt P08246); experiment: Inhibitory effect on elastase (human neutrophil), spectrophotometric assay with MeOSuc-Ala-Ala-Pro-Val-pNA; assay type: biochemical; settings: N: human neutrophil elastase; pH 8.0, 37° C.; read-out: IC50
T2 construct: using elastase from human neutrophil or human sputum; from tissue; host or cells: human neutrophil
T2 sequence (P08246 30-247 limits assumed): T1 sequence (P08246 30-247 limits assumed)
Procedure: as §1, §2, §3, §4

Row | Compound | IC50 [1] [nM] | IC50 [3] [nM] | viability at 72 h, 1 µM [2] [%] | viability at 72 h, 5 µM [2] [%] | viability at 72 h, 10 µM [2] [%]
1 | CC(C)c1ccc(-n2nnc(-c3ccc(OC(=O)C(C)(C)C)cc3)n2)cc1 [Example 6, 4-[2-(4-Isopropylphenyl)tetrazol-5-yl)phenyl pivalate] | 4400 |  | 94.9 | 88.7 | 70.1
2 | CC(C)(C)C(=O)Oc1ccc(-c2nnn(CC(=O)Nc3ccccc3)n2)cc1 [Example 11, 4-[2-(N-Phenylcarbamoylmethyl)tetrazol-5-yl]phenyl pivalate] |  | 850 |  |  | 
3 | CC(C)(C)C(=O)Oc1ccc(-c2nnn(CC(=O)N3CCCCC3)n2)cc1 [Example 12, 4-[2-(Piperidinocarbonylmethyl)tetrazol-5-yl]phenyl pivalate] |  | 510 |  |  | 
4 | CC(C)(C)C(=O)Oc1ccc(-c2nnn(CCc3ccccc3)n2)cc1 [Example 14, 4-[2-(2-Phenylethyl)tetrazol-5-yl]phenyl pivalate] |  | 76 |  |  | 
5 | CC(C)(C)C(=O)Oc1ccc(-c2nnn(COCc3ccccc3)n2)cc1 [Example 15, 4-[2-(Benzyloxymethyl)tetrazol-5-yl]phenyl pivalate] |  | 94 |  |  | 
6 | COc1ccc(COCCCCn2nnc(-c3ccccc3OC(=O)C(C)(C)C)n2)cc1 [Example 22, 2-[2-[4-(4-Methoxybenzyloxy)butyl]tetrazol-5-yl]phenyl pivalate] | 4300 |  | 102 | 86.4 | 86.7
7 | COc1ccc(COCCCCn2nnc(-c3cccc(OC(=O)C(C)(C)C)c3)n2)cc1 [Example 23, 3-[2-[4-(4-Methoxybenzyloxy)butyl]tetrazol-5-yl]phenyl pivalate] |  | 22 | 104 | 102 | 94.3
8 | CC(C)Cn1nnc(-c2ccc(OC(=O)C(C)(C)C)cc2)n1 [Example 37, 4-[2-(2-Methylpropyl)tetrazol-5-yl]phenyl pivalate] | 180 |  | 92.5 | 106 | 95.5
9 | COc1cc(-c2nnn(Cc3ccc(N(C)C)cc3)n2)ccc1OC(=O)C(C)(C)C [Example 48, 4-[2-[4-(Dimethylamino)benzyl]tetrazol-5-yl]-2-methoxyphenyl pivalate] | 700 |  | 99.4 | 94.6 | 86.1
10 | Cc1cc(-c2nnn(Cc3ccc(N(C)C)cc3)n2)ccc1OC(=O)C(C)(C)C [Example 49, 4-[2-[4-(Dimethylamino)benzyl]tetrazol-5-yl]-2-methylphenyl pivalate] | 700 |  | 103 | 105 | 110
11 | CC(C)[C@H](NC(=O)c1ccc(Cn2nnc(-c3ccc(OC(=O)C(C)(C)C)cc3)n2)cc1)C(=O)O [Example 67, N-[4-[5-(4-Pivaloyloxyphenyl)tetrazol-2-ylmethyl]benzoyl]-L-valine] | 130 |  | 92.2 | 100 | 90.1
12 | CC(C)(C)C(=O)Oc1ccc(-c2nnn(C(C(=O)O)c3ccccc3)n2)cc1 (centres unmarked) [Example 69, 2-Phenyl-2-[5-(4-pivaloyloxyphenyl)tetrazol-2-yl]acetic acid] | 820 |  | 96.7 | 105 | 101
13 | CC(C)(C)C(=O)Oc1ccc(-c2nnn(CCCCCO)n2)cc1 [Example 74, 4-[2-(5-Hydroxypentyl)tetrazol-5-yl]phenyl pivalate] |  | 98 |  |  | 
14 | CC(C)(C)C(=O)Oc1ccc(-c2nnn(CC(=O)O)n2)cc1 [Example 80, 5-(4-Pivaloyloxyphenyl)-2-tetrazoleacetic acid] |  |  | 93.9 | 98.1 | 109
15 | CC(C)(C)C(=O)Oc1ccc(-c2nnn(CCN)n2)cc1 [Example 92, 4-[2-(2-Aminoethyl)tetrazol-5-yl]phenyl pivalate Hydrochloride] | 1600 |  |  |  | 
16 | CC(C)(C)C(=O)Oc1ccc(-c2nnn(CCCCC(=O)O)n2)cc1 [Example 93, 5-[5-(4-Pivaloyloxyphenyl)tetrazol-2-yl]valeric acid] |  | 520 |  |  | 
17 | CC(C)c1ccc(Cn2nnnc2-c2ccc(OC(=O)C(C)(C)C)cc2)cc1 [Example 96, 4-[1-(4-Isopropylbenzyl)tetrazol-5-yl]phenyl pivalate] | 140 |  |  |  | 
18 | CN(C)c1ccc(Cn2nnnc2-c2ccc(OC(=O)C(C)(C)C)cc2)cc1 [Example 99, 4-[1-[4-(Dimethylamino)benzyl]tetrazol-5-yl]phenyl pivalate] | 340 |  |  |  | 
19 | CN(C)c1ccccc1Cn1nnc(-c2ccc(OC(=O)C(C)(C)C)cc2)n1 [Example 101, 4-[2-[2-(Dimethylamino)benzyl]tetrazol-5-yl]phenyl pivalate] | 380 |  |  |  | 

More lines, main results first:

Row | IC50 [1] [nM] | IC50 [3] [nM] | Compound | viability at 72 h, 1 µM [2] [%] | viability at 72 h, 5 µM [2] [%] | viability at 72 h, 10 µM [2] [%]
20 | 170 |  | CC(C)(C)C(=O)Oc1ccc(-c2nnn(Cc3ccccc3)n2)cc1 [Example 9, 4-(2-Benzyltetrazol-5-yl)phenyl pivalate] | 93.9 | 100 | 98.1
21 |  | 72 | COc1ccc(Cn2nnc(-c3ccc(OC(=O)C(C)(C)C)cc3)n2)cc1 [Example 13, 4-[2-(4-Methoxybenzyl)tetrazol-5-yl]phenyl pivalate] |  |  | 
22 |  | 100 | CC(C)(C)C(=O)Oc1ccc(-c2nnn(Cc3ccc(C(F)(F)F)cc3)n2)cc1 [Example 17, 4-[2-(4-Trifluoromethylbenzyl)tetrazol-5-yl]phenyl pivalate] |  |  | 
23 | 160 | 17 | COc1ccc(COc2ccc(Cn3nnc(-c4ccc(OC(=O)C(C)(C)C)cc4)n3)cc2)cc1 [Example 18, 4-[2-[4-(4-Methoxybenzyloxy)benzyl]tetrazol-5-yl]phenyl pivalate] |  |  | 
24 |  | 90 | COc1ccc(CCCn2nnc(-c3ccc(OC(=O)C(C)(C)C)cc3)n2)cc1 [Example 20, 4-[2-[3-(4-Methoxyphenyl)propyl]tetrazol-5-yl]phenyl pivalate] |  |  | 
25 |  | 62 | COc1ccc(CCCCn2nnc(-c3ccc(OC(=O)C(C)(C)C)cc3)n2)cc1 [Example 21, 4-[2-[4-(4-Methoxyphenyl)butyl]tetrazol-5-yl]phenyl pivalate] |  |  | 
26 |  | 100 | COC(=O)c1ccccc1Cn1nnc(-c2ccc(OC(=O)C(C)(C)C)cc2)n1 [Example 24, 4-[2-(2-Methoxycarbonylbenzyl)tetrazol-5-yl]phenyl pivalate] |  |  | 
27 |  | 65 | COc1ccc(COCCn2nnc(-c3ccc(OC(=O)C(C)(C)C)cc3)n2)cc1 [Example 41, 4-[2-[2-(4-Methoxybenzyloxy)ethyl]tetrazol-5-yl]phenyl pivalate] |  |  | 
28 |  | 85 | COc1ccc(CCn2nnc(-c3ccc(OC(=O)C(C)(C)C)cc3)n2)cc1 [Example 44, 4-[2-[2-(4-Methoxyphenyl)ethyl]tetrazol-5-yl]phenyl pivalate] |  |  | 
29 |  | 89 | CN(C)CCOc1ccc(Cn2nnc(-c3ccc(OC(=O)C(C)(C)C)cc3)n2)cc1 [Example 46, 4-[2-[4-(2-Dimethylaminoethoxy)benzyl]tetrazol-5-yl]phenyl pivalate Hydrochloride] |  |  | 
30 | 56 |  | CC(C)(C)C(=O)Oc1ccc(-c2nnn(Cc3ccc(C(=O)O)cc3)n2)cc1 [Example 54, 4-[5-(4-Pivaloyloxyphenyl)tetrazol-2-ylmethyl]benzoic acid] | 101 | 107 | 100
31 |  | 80 | CC(C)(C)C(=O)Oc1ccc(-c2nnn(Cc3ccc(O)cc3)n2)cc1 [Example 75, 4-[2-(4-Hydroxybenzyl)tetrazol-5-yl]phenyl pivalate] |  |  | 
32 | 91 |  | CC(C)(C)C(=O)Oc1ccc(-c2nnn(Cc3ccccc3N)n2)cc1 [Example 78, 4-[2-(2-Aminobenzyl)tetrazol-5-yl]phenyl pivalate] | 103 | 107 | 93.7
33 | 150 |  | CCN(C)c1ccc(Cn2nnc(-c3ccc(OC(=O)C(C)(C)C)cc3)n2)cc1 [Example 97, 4-[2-[4-(Ethylmethylamino)benzyl]tetrazol-5-yl]phenyl pivalate] |  |  | 
34 | 150 |  | CCCN(C)c1ccc(Cn2nnc(-c3ccc(OC(=O)C(C)(C)C)cc3)n2)cc1 [Example 98, 4-[2-[4-(Methylpropylamino)benzyl]tetrazol-5-yl]phenyl pivalate] |  |  | 
35 | 250 |  | CN(C)c1cccc(Cn2nnc(-c3ccc(OC(=O)C(C)(C)C)cc3)n2)c1 [Example 100, 4-[2-[3-(Dimethylamino)benzyl]tetrazol-5-yl]phenyl pivalate] |  |  | 
